Non-standard residues stand in square brackets, D forms with d. Residues, ends and D or L forms follow the SMILES beside them. *: point of attachment. X1 = C[C@H](CC(=O)N[C@@H](CCCCN)C(=O)O)OC(=O)C[C@H](C)NC(=O)C[C@@H](C)O*; β3hA = C[C@H](N)CC(=O)O
Tested on: RMA-S
Assay: The compound was tested for binding affinity against murine RMA-S cells transfected with B*2705 by FMC analysis.
Format: functional, Mus musculus

Compound | C50 [µM]
C[C@H](CC(=O)N[C@H](C)CC(=O)N[C@@H](CCCCN)C(=O)O)NC(=O)C[C@@H](C)NC(=O)C[C@@H](C)NC(=O)[C@H](C)NC(=O)[C@H](CCCN=C(N)N)NC(=O)CN.O=C(O)C(F)(F)F.O=C(O)C(F)(F)F.O=C(O)C(F)(F)F | 2.8
C[C@H](CC(=O)N[C@@H](CCCCN)C(=O)O)NC(=O)C[C@H](C)NC(=O)C[C@@H](C)NC(=O)C[C@H](C)NC(=O)[C@H](C)NC(=O)[C@H](CCCN=C(N)N)NC(=O)CN.O=C(O)C(F)(F)F.O=C(O)C(F)(F)F.O=C(O)C(F)(F)F | 4.8
C[C@H](NC(=O)[C@H](CCCN=C(N)N)NC(=O)CN)C(=O)N[C@@H](C)CC(=O)N[C@@H](C)CC(=O)N[C@@H](C)CC(=O)N[C@@H](C)CC(=O)N[C@@H](CCCCN)C(=O)O | 6
C[C@H](CC(=O)N[C@@H](C)CC(=O)N[C@@H](C)CC(=O)N[C@@H](CCCCN)C(=O)O)NC(=O)C[C@@H](C)NC(=O)[C@H](C)NC(=O)[C@H](CCCN=C(N)N)NC(=O)CN | 30
C[C@H](CC(=O)N[C@@H](C)CC(=O)N[C@@H](C)CC(=O)N[C@@H](CCCCN)C(=O)O)OC(=O)C[C@@H](C)OC(=O)[C@H](C)NC(=O)[C@H](CCCN=C(N)N)NC(=O)CN | 17
C[C@H](CC(=O)N[C@@H](CCCCN)C(=O)O)OC(=O)C[C@H](C)NC(=O)C[C@@H](C)OC(=O)C[C@H](C)NC(=O)[C@H](C)NC(=O)[C@H](CCCN=C(N)N)NC(=O)CN (H-GRA[β3hA]-X1) | 2.8
H-GRAFVTIGK-OH | 2.8
